From patent US20230002324A1, “NAPHTHOQUINONE DERIVATIVES FOR TREATMENT OF OXIDATIVE STRESS DISORDERS” (PTC THERAPEUTICS, INC., priority 2019, published 2023)

Test system: normal human fibroblasts (NHF, GM21811)
Test: NHF GM21811 RSL3 challenge cell survival (rescue) assay
Type: cell-based
Conditions: Fibroblast, NHF cells, RSL3 2 micromolar, 48 h, Cell Titer Glo, read-out: NHF GM21811 RSL3 Survival EC50
Text: In neuronal cells excess extracellular glutamate inhibits the cystine/glutamate antiporter leading to intracellular cysteine depletion, GSH depletion, reactive oxygen species (ROS) production and cell death, a phenomenon termed oxidative glutamate toxicity, oxytosis, or ferroptosis. […] Q7 cells (ST HDH Q7/7; immortalized mouse striatal cells) challenged with cystine-free media or the selective, irreversible GPX4 inhibitor, methyl (1S,3R)-2-(2-chloroacetyl)-1-(4-(methoxycarbonyl)phenyl)-2,3,4,9-tetrahydro-1H-pyrido[3,4-b]indole-3-carboxylate (hereafter referred to as RSL3), recapitulate this phenotype, as do normal human fibroblasts (NHF) challenged with RSL3. An initial screen was performed to identify compounds effective in rescuing Q7 and/or NHF cells from death resulting from cystine deprivation or RSL3 challenge. This method is further described in Yonezawa et al., J. Neurochem 67, 566-573 (1996), Li et al., J Neurosci., 23, 5816-5826 (2003), Yang and Stockwell, Chem Biol., 15: 234-45 (2008), and Yang et al., Cell 156, 317-331 (2014). See also Hinman A, Holst C R, Latham J C, et al. Vitamin E hydroquinone is an endogenous regulator of ferroptosis via redox control of 15-lipoxygenase. PLoS One. 2018; 13(8):e0201369. Published 2018 Aug. 15. doi:10.1371/journal.pone.0201369; and Kahn-Kirby A H, Amagata A, Maeder C I, et al. Targeting ferroptosis: A novel therapeutic strategy for the treatment of mitochondrial disease-related epilepsy. PLoS One. 2019; 14(3):e0214250. Published 2019 Mar. 28. doi:10.1371/journal.pone.0214250.
DMEM (Catalog no. 11995-040), DMEM without Cystine (Catalog no. 21013-024), DMEM without Glucose (Catalog A1443001), PBS (Phosphate buffered saline), Penicillin-streptomycin mix, L-Glutamine, Glucose, Phenol Red, and Pyruvate were purchased from ThermoFisher Scientific (Gibco). Fetal Bovine Serum was obtained from Mediatech, Inc., or Sigma Aldrich. Mouse striatum derived ST HDH Q7/7 (Q7) and normal human skin fibroblast (NHF, product number GM21811) cells were obtained from the Coriell Institute. Methionine and Vitamin K2 were purchased from Sigma Aldrich. RSL3 was synthesized as previously described (see e.g. US Patent Publication US2010/0081654). Cell Titer Glo 2.0 was purchased from Promega. Q7 cell culture medium (Q7 growth medium) was made by combining 50 mL Fetal Bovine Serum, 100 U/mL penicillin, and 100 microgram/mL streptomycin; DMEM was added to make the volume up to 500 mL. Assay medium for the Cystine Deprivation assay was prepared by combining 50 mL Fetal Bovine Serum, 100 U/mL penicillin, 100 microgram/mL streptomycin, 4 mM L-Glutamine, 1 mM Pyruvate and 30 mg/L Methionine; DMEM without Cystine was added to make the volume up to 500 mL. NHF cell culture medium (NHF growth medium) was made by combining 50 mL Fetal Bovine Serum, 100 U/mL penicillin, 100 microgram/mL streptomycin, 2.8 mL 20% Glucose solution (final concentration 6 mM), L-glutamine (final concentration 2 mM), phenol red (final concentration 15 mg/L); DMEM without Glucose was added to make the volume up to 500 mL. Assay medium for the RSL3 challenge assay was identical to Growth medium. While not in use during the course of the experiments, these solutions were stored at 4° C. The cells were grown in 150-cm^2 tissue culture-treated flasks. Every third or fourth day, the cells were sub-cultured by trypsinization and re-seeded at a cell density of 600,000 (Q7) or 300,000 (NHF) cells per flask.
Q7 or NHF cells were cultured routinely as described herein. For 384-well cell survival assays, cells were seeded in clear bottom, black wall 384-well tissue culture-treated polystyrene plates by re-suspending a cell suspension at a density of 50,000 cells/mL in growth medium, then dispensing 60 microliters of cell suspension per well using either an electronic multichannel pipette or a Multidrop™ Combi Reagent Dispenser (ThermoFisher Scientific), corresponding to 3,000 cells/well. […]

| SMILES | EC50 |
| --- | --- |
| CCC1=C(Cc2cc(C(F)(F)F)c(C)cn2)C(=O)c2ccccc2C1=O [Example 149, 2-ethyl-3-((5-methyl-4-(trifluoromethyl)pyridin-2-yl)methyl)naphthalene-1,4-dione] | < 50 nM |
| CCC1=C(Cc2ncc(C(F)(F)F)cc2F)C(=O)c2c(F)cc(F)cc2C1=O [Example 64, 2-ethyl-5,7-difluoro-3-((3-fluoro-5-(trifluoromethyl)pyridin-2-yl)methyl)naphthalene-1,4-dione] | < 50 nM |
| CCC1=C(Cc2ccc(C(F)(F)F)c(O)n2)C(=O)c2c(F)ccc(F)c2C1=O [Example 153, 2-ethyl-5,8-difluoro-3-((6-hydroxy-5-(trifluoromethyl)pyridin-2-yl)methyl)naphthalene-1,4-dione] | < 50 nM |
| CCC1=C(Cc2ccc(F)c(C)n2)C(=O)c2c(F)ccc(F)c2C1=O [Example 140, 2-ethyl-5,8-difluoro-3-((5-fluoro-6-methylpyridin-2-yl)methyl)naphthalene-1,4-dione] | < 50 nM |
| CCC1=C(Cc2ccc(C(F)(F)C(F)(F)F)cn2)C(=O)c2c(F)ccc(F)c2C1=O [Example 141, 2-ethyl-5,8-difluoro-3-((5-(perfluoroethyl)pyridin-2-yl)methyl)naphthalene-1,4-dione] | < 50 nM |
| CCC1=C(Cc2cc(C(F)(F)F)c(OC)cn2)C(=O)c2c(F)ccc(F)c2C1=O [Example 134, 2-ethyl-5,8-difluoro-3-((5-methoxy-4-(trifluoromethyl)pyridin-2-yl)methyl)naphthalene-1,4-dione] | < 50 nM |
| CCC1=C(Cc2ccc(C(F)(F)C(F)(F)F)cn2)C(=O)c2ccccc2C1=O [Example 148, 2-ethyl-3-((5-(perfluoroethyl)142yridine-2-yl)methyl)naphthalene-1,4-dione] | < 50 nM |
| CCC1=C(Cc2ccc(C(F)(F)F)cn2)C(=O)c2cccc(F)c2C1=O [Example 61, 3-ethyl-5-fluoro-2-((5-(trifluoromethyl)pyridin-2-yl)methyl)naphthalene-1,4-dione] | < 50 nM |
| N#Cc1nc(CC2=C(C3CC3)C(=O)c3cc(F)cc(F)c3C2=O)ccc1C(F)(F)F [Example 95, 6-((3-cyclopropyl-6,8-difluoro-1,4-dioxo-1,4-dihydronaphthalen-2-yl)methyl)-3-(trifluoromethyl)picolinonitrile] | < 50 nM |
| CCC1=C(Cc2cc(C)c(F)cn2)C(=O)c2ccccc2C1=O [Example 146, 2-ethyl-3-((5-fluoro-4-methylpyridin-2-yl)methyl)naphthalene-1,4-dione] | < 50 nM |
| CCC1=C(Cc2ccc(C(F)F)cn2)C(=O)c2c(F)ccc(F)c2C1=O [Example 136, 2-((5-(difluoromethyl)pyridin-2-yl)methyl)-3-ethyl-5,8-difluoronaphthalene-1,4-dione] | < 50 nM |
| CCC1=C(Cc2ccc(C(F)(F)F)c(OC)n2)C(=O)c2c(F)ccc(F)c2C1=O [Example 152, 2-ethyl-5,8-difluoro-3-((6-methoxy-5-(trifluoromethyl)pyridin-2-yl)methyl)naphthalene-1,4-dione] | < 50 nM |
| CCC1=C(Cc2ccc(OC(F)(F)F)cn2)C(=O)c2c(F)cc(F)cc2C1=O [Example 142, 2-ethyl-5,7-difluoro-3-((5-(trifluoromethoxy)pyridin-2-yl)methyl)naphthalene-1,4-dione] | < 50 nM |
| CCC1=C(Cc2ccc(C(C)(F)F)cn2)C(=O)c2c(F)ccc(F)c2C1=O [Example 62, 2-((5-(1,1-difluoroethyl)pyridin-2-yl)methyl)-3-ethyl-5,8-difluoronaphthalene-1,4-dione] | < 50 nM |
| CCC1=C(Cc2ncc(C(F)(F)F)cc2Cl)C(=O)c2c(F)cc(F)cc2C1=O [Example 94, 3-((3-chloro-5-(trifluoromethyl)pyridin-2-yl)methyl)-2-ethyl-5,7-difluoronaphthalene-1,4-dione] | < 50 nM |
| CCC1=C(Cc2ccc(C(F)(F)F)c(C)n2)C(=O)c2c(F)ccc(F)c2C1=O [Example 139, 2-ethyl-5,8-difluoro-3-((6-methyl-5-(trifluoromethyl)pyridin-2-yl)methyl)naphthalene-1,4-dione] | < 50 nM |
